From US20060211705A1, “'N-(2-chloro-6-methylphenyl)-2-[[6-[4-(2-hydroxyethyl)-1-piperazinyl]-2-methyl-4-pyrimidinyl]amino]-5-thiazolecarboxamides metabolites” (priority 2005, published 2006)

Assays:
[1] = Radioactive metabolites in plasma, urine and feces after single oral dose of [14C] compound (I) to humans; type: in vivo, human; conditions: for % Distribution of radioactive metabolites in pooled plasma, Human (2 h): oral 100-mg [14C] compound (I), plasma 2 h; for Metabolites in Feces (0-168 hr), Human, % Dose / Metabolites in Feces (0-168 hr), Human, % Rad / Metabolites in Urine (0-168 hr), Human, % Dose / Metabolites in Urine (0-168 hr), Human, % Rad: oral 100-mg; for Metabolites in Feces (0-168 hr), Human, % Dose / Metabolites in Feces (0-168 hr), Human, % Rad: pooled fecal extracts 0-168 hr; for Metabolites in Urine (0-168 hr), Human, % Dose / Metabolites in Urine (0-168 hr), Human, % Rad: pooled urine 0-168 hr
Experimental: Plasma samples were segregated by collection time and equal volumes of individual plasma samples at a given time point were combined for biotransformation profiling.
The C-14 label was on the carbon-2 of the thiazole ring.
HPLC was performed on an Agilent 1100™ system equipped with binary pumps, autoinjector, and a column heater. A Phenomenex Synergy Polar-RP® column (4.6×250 mm, 5 micron) was used for metabolite separation. All HPLC analyses were performed at 1 mL/min flow rate at 35° C. The HPLC mobile phase consisted of (A) water with 0.1% formic acid and (B) acetonitrile with 0.1% formic acid.
Each fraction of column eluent was evaporated to dryness on a Savant Speed-Vac (Savant Instruments Inc., Holbrook, N.Y.) and counted for radioactivity with a Packard Top Count® microplate scintillation analyzer (Packard Biosciences, Downers Grove, Ill.).
The volumes of pooled plasma processed for HPLC analysis for rat, monkey and human ranged between 1.5 and 8.0 mL. Pooled plasma samples were extracted with methanol/acetonitrile (1:1) at a ratio of 2 volumes solvent to 1 volume of plasma. The mixtures were vortex mixed, sonicated for 5 min, and centrifuged at 3500 rpm for 10 min. The supernatants were transferred into new tubes. The remaining pellets were extracted two more times with 3 mL of methanol/acetonitrile (1:1). The supernatants were combined and evaporated to dryness in a Savant Speed-Vac (Savant Instruments, Inc., Holbrook, N.Y.). The residue was reconstituted into 0.35 to 0.45 mL of 30% acetonitrile in water, vortex mixed and centrifuged at 13000 rpm for 5 min (American Scientific Products Biofuge A centrifuge, Heraeus Sepatech GmbH, Germany). The supernatant was injected onto the HPLC for profiling. Aliquots of the reconstituted samples (30 μl) were also counted on the liquid scintillation counter (LSC) to determine the recovery of radioactivity.
The pooled monkey and human urine samples (3-5 mL) were extracted with 2 volumes of acetonitrile/acetone (1:1). The mixtures were vortex mixed, sonicated and centrifuged at 3500 rpm for 10 min. The supernatants were evaporated to dryness. The residue was suspended in 0.3-0.5 mL of 30% acetonitrile in water and centrifuged at 13000 rpm for 5 min. Aliquots of the supernatants were injected onto the HPLC or analyzed by LSC for radioactivity recovery. Pooled urine samples from BDC monkeys and rats were centrifuged at 13000 rpm for 10 min and injected onto the HPLC for profiling without further treatment.
The amount of fecal homogenate used for analysis was 0.20, 0.19 and 0.51 g for rat, monkey and human, respectively. Each pooled fecal homogenate was extracted by addition of 3 volumes of acetonitrile/methanol (1:1) to 1 volume of fecal homogenate and mixed on a vortex mixer. The mixture was sonicated for 5 min and then centrifuged at 3000 rpm for 10 min. The supernatants were removed and saved. The extraction was repeated two additional times and the supernatants were combined and evaporated to dryness on a Savant Speed-Vac. […] An aliquot of the supernatant was injected onto the HPLC or analyzed by LSC for radioactivity recovery.
The LC/MS system used for analysis of plasma, urine, bile, and fecal samples consisted of an Agilent 1100™ HPLC system connected to a Finnigan LCQ-DecaXP mass spectrometer. Samples were analyzed using positive electrospray ionization. The capillary temperature used for analysis was 320° C., and the nitrogen gas flow rate, spray current, and voltages were adjusted to give maximum sensitivity. The HPLC conditions were described in section 3.3.1.
Counts per min (CPM) were determined on a Packard TopCount NXT microplate scintillation and luminescence counter. For each injection, the average CPM value (2-4 CPM) obtained from fractions between 2-3 min (column void) in the chromatogram was subtracted from the CPM value of each fraction. Biotransformation profiles were prepared by plotting the background subtracted CPM values against time-after-injection.

[2] = In vivo metabolism of compound of formula I in bile duct cannulated rats by LC/UV/MSn; parameters: species or system rat; conditions: BDC rats; for Relative abundance in gastrointestinal samples from rats dosed orally: 10 mg/kg oral, GIT at 9 hour; for Relative abundance in rat urine / Relative abundance in rat bile: 10 mg/kg; for Relative abundance in rat urine: urine over 9 hour; for Relative abundance in rat bile: bile over 9 hour
Experimental: The in vivo metabolism of compound of formula I was investigated in bile duct cannulated rats (n=2), following a single dose of 10 mg/kg either intravenously (IV) as a 10 minute infusion or orally by gavage. The vehicle used was 50 mM sodium acetate buffer, pH 4.6. The rats were fasted overnight and for the duration of the study. Urine and bile were collected over a 9 hour period. The gastrointestinal tract (GIT) and feces were collected at the end of the 9 hour study period. GIT and feces were homogenized with 3 volumes of water and 3 volumes of acetonitrile per volume of GIT/feces. Blood samples were collected at 15, 30 minutes, 1, 2, 4, 6 and 9 hours after intravenous and oral dosing in tubes containing EDTA and plasma was prepared by centrifugation. Samples were stored at −20° C. until analysis.
Plasma samples were pooled across collection intervals and treated with two volumes of acetonitrile. After centrifugation, the supernatent was removed and evaporated to dryness. The residues were then redissolved in 300 μl of methanol:water (1:1). Bile and urine samples from the BDC rat study were pooled across collection intervals. Bile samples were purified by sep-pak purification on C8 cartridges. The samples were evaporated and the residue was redissolved in 300 μl of methanol:water (1:1). Urine samples were diluted one to one with methanol and analyzed without further purification. All samples were analyzed by LC/UV/MS^n.
The HPLC system consisted of Waters alliance 2690 separation module. The column used was a Phenomenex Curosil PFP, 4.6 mm×150 mm, 5 μ particles with a flow rate of 1.0 mL/min. The mobile phase consisted of 95/5 v/v Water/Methanol containing 0.1% formic acid (Solvent A) and Methanol (Solvent B). The initial mobile phase composition was 20% Solvent B. After sample injection, this composition was held for 0.5 minute at initial conditions then ramped to 80% solvent B up to 24.5 min, and ramped to 100% solvent B up to 28 minutes. The mobile phase was then returned to initial conditions and the column re-equilibrated for 5 minutes. Total analysis time was 33 minutes.
The HPLC was interfaced to a Finnigan's Photo Diode Array Detector (PDA: UV6000) in tandem with Finnigan Deca XP ion trap mass spectrometer. Deca XP mass spectrometer was equipped with an Electrospray ionization source (ESI) interface. The source was operated in a positive ion mode with capillary temperature of 350° C. and source voltage 5.0 kV. The UV profile was extracted at […] of 254 nm. UHP (Ultra High Purity) nitrogen was used as sheath and auxiliary gas. The normalized collision energy was set at 50% and the isolation width was 3.0 amu. Multiple MS experiments were performed in a single chromatographic run with the following data dependent settings: […]

| % Distribution of radioactive metabolites in pooled plasma, Human (2 h) [1] [%] | Metabolites in Feces (0-168 hr), Human, % Dose [1] [%] | Metabolites in Feces (0-168 hr), Human, % Rad [1] [%] | Metabolites in Urine (0-168 hr), Human, % Dose [1] [%] | Metabolites in Urine (0-168 hr), Human, % Rad [1] [%] | Relative abundance in rat plasma ([2]; 10 mg/kg IV or oral, pooled plasma, LC/UV/MSn) | Relative abundance in gastrointestinal samples from rats dosed orally [2] | Relative abundance in rat urine [2] | Relative abundance in rat bile [2] | Structure (SMILES) |
| --- | --- | --- | --- | --- | --- | --- | --- | --- | --- |
| 12.5 | 31.2 | 36.6 | 0.2 | 4.1 | – | – | – | – | Cc1nc(Nc2ncc(C(=O)Nc3c(C)cc(O)cc3Cl)s2)cc(N2CCN(CCO)CC2)n1 [M20 (V)] |
| 25.5 | 19.1 | 22.4 | 0.1 | 3.6 | major peak | major drug related peak | trace amounts | – | Cc1nc(Nc2ncc(C(=O)Nc3c(C)cccc3Cl)s2)cc(N2CCN(CCO)CC2)n1 [Parent (I), N-(2-Chloro-6-methylphenyl)-2-[[6-[4-(2-hydroxyethyl)-1-piperazinyl]-2-methyl-4-pyrimidinyl]amino]-5-thiazolecarboxamide] |
| – | 2.6 | 3.1 | 0.05 | 1.3 | – | trace amounts | – | – | Cc1nc(Nc2ncc(C(=O)Nc3c(C)cccc3Cl)s2)cc(N2CCNCC2)n1 [M4 (II)] |
| 3.1 | 4.0 | 4.7 | 0.2 | 6.0 | – | – | – | – | Cc1nc(Nc2ncc(C(=O)Nc3c(Cl)cccc3CO)s2)cc(N2CCN(CCO)CC2)n1 [M24 (VI), N-(2-chloro-6-(hydroxymethyl)phenyl)-2-(6-(4-(2-hydroxyethyl)piperazin-1-yl)-2-methylpyrimidin-4-ylamino)thiazole-5-carboxamide] |
| 4.5 | – | – | 1.4 | 39.8 | – | – | major metabolite | major metabolites | Cc1nc(Nc2ncc(C(=O)Nc3c(C)cccc3Cl)s2)cc(N2CC[N+]([O-])(CCO)CC2)n1 [M5 (III)] |
| 3.6 | 8.9 | 10.4 | 0.05 | 1.3 | – | trace amounts | – | major metabolites | Cc1nc(Nc2ncc(C(=O)Nc3c(C)cccc3Cl)s2)cc(N2CCN(CC(=O)O)CC2)n1 [M6 (IV), 2-(4-(6-(5-((2-Chloro-6-methylphenyl)carbamoyl)thiazol-2-ylamino)-2-methylpyrimidin-4-yl)piperazin-1-yl)acetic acid] |
